Measured values as given in PubChem BioAssay (NCI).
Values joined by “and” are separate entries in the source; they are usually repeats but may differ in a detail not shown here. Equal entries are not always repeated.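 96-well plates; 48 h exposure; 5 concentrations. Endpoints by linear interpolation between flanking doses. Not reached: highest tested concentration assigned. Here, GI50 denotes the concentration required for 50% inhibition of growth. TGI denotes the concentration required for complete inhibition of growth.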

Assays:
Test in all cases: DTP human tumour cell line panel, 48 h
KM12 colon = system: KM12 colon
MALME-3M melanoma = system: MALME-3M melanoma
T-47D breast = system: T-47D breast
HT29 colon = system: HT29 colon
SNB-19 CNS = system: SNB-19 CNS
MDA-MB-435 = system: MDA-MB-435
TK-10 renal = system: TK-10 renal
NCI/ADR-RES ovarian = system: NCI/ADR-RES ovarian
SF-268 CNS = system: SF-268 CNS
LOX IMVI melanoma = system: LOX IMVI melanoma

Compound	GI50 (KM12 colon)	TGI (KM12 colon)	GI50 (MALME-3M melanoma)	TGI (MALME-3M melanoma)	GI50 (T-47D breast)	TGI (T-47D breast)	GI50 (HT29 colon)	TGI (HT29 colon)	GI50 (SNB-19 CNS)	TGI (SNB-19 CNS)	GI50 (MDA-MB-435)	TGI (MDA-MB-435)	GI50 (TK-10 renal)	TGI (TK-10 renal)	GI50 (NCI/ADR-RES ovarian)	TGI (NCI/ADR-RES ovarian)	GI50 (SF-268 CNS)	TGI (SF-268 CNS)	GI50 (LOX IMVI melanoma)	TGI (LOX IMVI melanoma)
Cn1nc(C(F)(F)F)cc1-c1c[nH]c(OCc2ccc(Cl)cc2)c(-c2ccc(Cl)c(C(F)(F)F)c2)c1=O	1.26 µM	4.86 µM	1.09 µM	3.07 µM	0.803 µM	3.27 µM	1.51 µM	> 47.5 µM	1.63 µM	> 50 µM	1.37 µM	6.75 µM	1.8 µM	> 36.6 µM	1.42 µM	> 50 µM	1.08 µM	> 23.8 µM	1.23 µM	3.56 µM
C#CCN(Cc1nc2cc(C(F)(F)F)ccc2nc1-c1ccccc1)c1ccc(C)cc1	9.94 µM	> 24.6 µM	15.7 µM	42.3 µM	2.85 µM	31.6 µM	12.4 µM	> 32 µM	6.2 µM	> 36.1 µM	2.73 µM	9.09 µM	15.4 µM	> 39.6 µM	4.58 µM		17 µM	> 100 µM	24.8 µM	> 48.5 µM
CCCCNC(=O)C1C(=O)N(CCCC)C(=O)/C1=N\N (stereo unspecified)		> 100 µM		> 100 µM				> 100 µM		> 100 µM				> 100 µM				> 100 µM		> 100 µM
Cc1ccc2c(c1)c(Sc1ccc(C(=O)NO)cc1)c1n2CN(C)CC1	1.71 µM	3.5 µM	1.35 µM	4.2 µM	1.53 µM	5.45 µM	2.53 µM	8.38 µM	2.13 µM	7.27 µM	1.58 µM	3.37 µM	2.19 µM	6.73 µM	3.88 µM	19 µM	1.6 µM	3.7 µM	1.59 µM	3.36 µM
CCc1nc(N)nc(N)c1-c1ccc2nnn(O)c2c1		> 100 µM				> 100 µM		> 100 µM		> 100 µM		> 100 µM		> 100 µM		> 100 µM		> 100 µM		> 100 µM
O=c1c2ccccc2nc(/C=C(\O)c2ccncc2)n1-c1ccc(Cl)cc1		> 100 µM		> 100 µM				> 100 µM		> 100 µM				> 100 µM				> 100 µM		
O=C(O)COc1ccc(C(=O)/C(SS/C(C(=O)c2ccc(OCC(=O)O)c(Cl)c2Cl)=C2\C=C(c3ccc(Cl)cc3)SS2)=C2/C=C(c3ccc(Cl)cc3)SS2)c(Cl)c1Cl		54.6 µM		> 100 µM				> 100 µM		> 100 µM				> 100 µM				27.6 µM		15.3 µM
COc1ccc(Cn2cc3c(c2-c2ccccc2)CCc2cnoc2-3)cc1OC	0.487 µM	> 100 µM			0.664 µM	71.2 µM	0.387 µM	> 100 µM	2.79 µM	> 100 µM	0.244 µM	0.864 µM	2.3 µM	> 100 µM	0.324 µM	1.91 µM	3.68 µM	> 100 µM	0.819 µM	> 100 µM
O=C(c1ccccc1)C(c1ccccc1)C1(O)C(=O)Nc2ccc([N+](=O)[O-])cc21 (stereo unspecified)				> 100 µM						> 100 µM				> 100 µM				> 100 µM		> 100 µM
O=C1[C@@H]2C(c3ccccc3[N+](=O)[O-])=[N+](c3ccccc3)O[C@@H]2C(=O)N1c1ccc(Cc2ccc(N3C(=O)[C@H]4C(c5ccccc5[N+](=O)[O-])=[N+](c5ccccc5)O[C@H]4C3=O)cc2)cc1		> 100 µM		81.6 µM				> 100 µM		> 100 µM				> 100 µM				> 100 µM		> 100 µM
O=C1C=CC(=O)c2c1ccc1c3ccccc3n(-c3ccccc3)c21		37.7 µM		16.8 µM		4.78 µM		37 µM		43.7 µM		30.3 µM		17.8 µM				40.9 µM		20.1 µM
C=C1C(=O)O[C@H]2C[C@@H]1CC/C(C)=C/CC/C(C)=C/CC[C@@]2(C)O	> 100 µM	> 100 µM			> 100 µM	> 100 µM	34.6 µM	> 100 µM	> 100 µM	> 100 µM	57.5 µM	> 100 µM	21.5 µM	67.7 µM	> 100 µM	> 100 µM	> 100 µM	> 100 µM	17.4 µM	31.5 µM
CCOC(=O)NC/C=C/COC1CCCCO1 (stereo unspecified)		> 100 µM		> 100 µM						> 100 µM				> 100 µM				> 100 µM		
Nc1nc(Cl)cc(NCC(O)CO)n1 (stereo unspecified)		> 100 µM		> 100 µM				> 100 µM		> 100 µM				> 100 µM				> 100 µM		> 100 µM
O=C(OC1CCC2OOC1O2)c1ccc([N+](=O)[O-])cc1 (stereo unspecified)		> 100 µM		> 100 µM				> 100 µM		> 100 µM				> 100 µM				> 100 µM		> 100 µM
CCC(O)C1Cc2c(C)cc3c(c2O1)C(=O)c1ccccc1C3=O (stereo unspecified)		> 100 µM		88.6 µM				> 100 µM		> 100 µM				> 100 µM				> 100 µM		93.7 µM
COc1cc2c(c(OC)c1OC)-c1ccc(OC)c(=O)cc1[C@@H](NC(C)=O)CC2			4.33 µM and 1.35 µM		> 100 µM	> 100 µM						< 0.01 µM	> 100 µM	> 100 µM	0.488 µM					> 100 µM
CCOC(=O)C(N=C(c1ccccc1)c1ccccc1)N(C(=O)OC(C)(C)C)C(=O)OC(C)(C)C (stereo unspecified)		> 100 µM		> 100 µM				> 100 µM		> 100 µM				> 100 µM				> 100 µM		
Cc1cc(Nc2ncc3c(n2)N(C)C(=O)N(c2cc(NC(=O)c4cccc(C(F)(F)F)c4)ccc2C)C3)n(C)n1	0.321 µM	> 46.4 µM	< 0.0124 µM	0.0489 µM	0.0438 µM	2.24 µM	0.023 µM	0.0864 µM	0.234 µM	> 46.4 µM					0.97 µM	> 31.6 µM	0.0291 µM	> 100 µM	0.0131 µM	0.0305 µM
